{
  "source": "patent US20240083897A1",
  "about": "“GCN2 MODULATING COMPOUNDS AND USES THEREOF” (HiberCell, Inc., priority 2021, published 2024)",
  "target": "GCN2 (Homo sapiens (Human), UniProt Q9P2K8)",
  "sequence (Q9P2K8 whole entry)": "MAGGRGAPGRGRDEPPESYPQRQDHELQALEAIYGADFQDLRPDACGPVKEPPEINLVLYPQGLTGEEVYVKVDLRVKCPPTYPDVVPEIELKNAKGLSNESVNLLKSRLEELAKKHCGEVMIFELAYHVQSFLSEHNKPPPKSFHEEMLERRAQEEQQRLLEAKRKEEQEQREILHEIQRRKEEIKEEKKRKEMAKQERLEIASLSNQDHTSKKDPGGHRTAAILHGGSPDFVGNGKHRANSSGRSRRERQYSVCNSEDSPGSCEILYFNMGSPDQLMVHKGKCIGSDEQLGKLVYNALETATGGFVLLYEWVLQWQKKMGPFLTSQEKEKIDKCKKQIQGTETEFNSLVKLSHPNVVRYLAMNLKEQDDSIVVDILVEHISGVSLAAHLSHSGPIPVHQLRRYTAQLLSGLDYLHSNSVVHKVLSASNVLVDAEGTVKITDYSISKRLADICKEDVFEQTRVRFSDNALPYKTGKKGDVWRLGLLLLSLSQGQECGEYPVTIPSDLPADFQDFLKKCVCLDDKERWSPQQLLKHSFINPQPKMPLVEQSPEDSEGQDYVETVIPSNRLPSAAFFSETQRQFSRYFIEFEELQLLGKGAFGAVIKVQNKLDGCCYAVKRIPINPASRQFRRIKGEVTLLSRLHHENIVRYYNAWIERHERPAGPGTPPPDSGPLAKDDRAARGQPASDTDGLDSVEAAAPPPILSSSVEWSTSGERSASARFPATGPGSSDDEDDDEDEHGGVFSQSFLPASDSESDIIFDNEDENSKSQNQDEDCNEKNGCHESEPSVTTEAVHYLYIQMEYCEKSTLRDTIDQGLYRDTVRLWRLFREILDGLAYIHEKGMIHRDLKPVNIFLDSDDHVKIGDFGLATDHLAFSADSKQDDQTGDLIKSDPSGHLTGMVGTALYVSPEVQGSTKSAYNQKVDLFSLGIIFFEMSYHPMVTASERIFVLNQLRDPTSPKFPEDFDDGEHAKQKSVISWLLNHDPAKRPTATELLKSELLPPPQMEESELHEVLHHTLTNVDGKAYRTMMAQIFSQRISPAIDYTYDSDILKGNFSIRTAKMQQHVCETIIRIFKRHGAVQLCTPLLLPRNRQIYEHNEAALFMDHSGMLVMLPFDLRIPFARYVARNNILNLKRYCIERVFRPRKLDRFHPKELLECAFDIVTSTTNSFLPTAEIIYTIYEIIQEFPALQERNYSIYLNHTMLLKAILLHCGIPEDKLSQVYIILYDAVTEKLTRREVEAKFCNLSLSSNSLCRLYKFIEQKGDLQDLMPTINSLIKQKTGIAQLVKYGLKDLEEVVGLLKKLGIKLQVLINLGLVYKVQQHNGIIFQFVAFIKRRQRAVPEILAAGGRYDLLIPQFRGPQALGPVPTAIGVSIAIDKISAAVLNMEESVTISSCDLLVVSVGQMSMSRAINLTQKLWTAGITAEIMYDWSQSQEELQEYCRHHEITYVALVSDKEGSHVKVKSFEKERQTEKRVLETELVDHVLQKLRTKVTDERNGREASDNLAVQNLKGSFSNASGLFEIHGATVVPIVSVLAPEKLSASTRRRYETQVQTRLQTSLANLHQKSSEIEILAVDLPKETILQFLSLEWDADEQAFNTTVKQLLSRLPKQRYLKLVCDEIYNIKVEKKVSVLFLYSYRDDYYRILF",
  "test": "TR-FRET biochemical assay for inhibition of GCN2",
  "settings": "GCN2 2 nM, 100 nM GFP-eIF2a, 150 μM ATP, TR-FRET",
  "data": [
    {"compound": "CNC(=O)c1ncn2c(F)c(-c3c(F)ccc(NS(=O)(=O)c4cc(Cl)cnc4C)c3F)ncc12", "note": "[Compound 186, 6-[3-(5-chloro-2-methylpyridine-3-sulfonamido)-2,6-difluorophenyl]-5-fluoro-N-methylimidazo[1,5-a]pyrazine-1-carboxamide]", "values": [
      {"measurement": "IC50", "result": "< 50", "unit": "nM"}
    ]}
  ]
}
